{
  "source": "patent US7635703B2",
  "about": "“Imidazole substituted pyrazole kinase inhibitors” (Janssen Pharmaceutica N.V., priority 2006, dated 2009)",
  "key": {"[1]": {"target": "T1, rat VEGF-R2 kinase domain (polyhistidine fusion, amino acids 786 to 1343) (Rattus norvegicus, UniProt O08775)", "T1 construct": "amino acids 786 to 1343 of the rat VEGF-R2 kinase domain; polyhistidine (N)", "T1 sequence (O08775 786-1343)": "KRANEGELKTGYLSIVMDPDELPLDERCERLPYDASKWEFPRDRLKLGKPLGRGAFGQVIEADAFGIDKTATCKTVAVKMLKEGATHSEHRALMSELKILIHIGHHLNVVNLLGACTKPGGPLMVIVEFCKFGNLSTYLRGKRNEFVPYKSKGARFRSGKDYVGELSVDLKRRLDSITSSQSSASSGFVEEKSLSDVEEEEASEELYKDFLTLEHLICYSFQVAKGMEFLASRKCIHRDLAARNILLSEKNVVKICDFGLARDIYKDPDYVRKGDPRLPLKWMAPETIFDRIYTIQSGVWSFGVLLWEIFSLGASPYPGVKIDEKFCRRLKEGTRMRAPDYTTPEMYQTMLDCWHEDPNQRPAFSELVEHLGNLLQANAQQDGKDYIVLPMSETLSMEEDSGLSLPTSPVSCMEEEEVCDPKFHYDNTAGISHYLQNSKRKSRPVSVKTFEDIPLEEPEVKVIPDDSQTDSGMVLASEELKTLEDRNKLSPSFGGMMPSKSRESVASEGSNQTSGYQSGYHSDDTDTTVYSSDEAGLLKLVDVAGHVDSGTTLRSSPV", "assay": "VEGFR2 screening assay (33P-ATP FlashPlate)", "assay_type": "biochemical", "settings": "10 μM ATP, 1 hr at 30° C.", "experimental": "(§1) 70 μL of the kinase reaction mixture was dispensed into the well of a streptavidin coated FlashPlate™ (Cat. # SMP103, NEN, Boston, Mass.).\n(§2) Test compound stock in 100% DMSO (1 μL) was added to the wells resulting in a final concentration of 1% DMSO in the reaction with a 100 μL final reaction volume. Each enzyme was diluted in 50 mM Tris-HCl pH=8.0, 0.1% BSA and 30 μL was added to each well to initiate the reaction. The reaction was incubated for one hour at 30° C. At the end of the 1 hr incubation, the reaction was terminated by aspirating the mixture from the plate and washing the wells twice with PBS containing 100 mM EDTA. The biotinylated peptide substrate became immobilized on the Flashplate™ and the incorporation of ^33P-γ-ATP was measured by reading the plate on a scintillation counter. Inhibition of the enzymatic activity was measured by observing a reduced amount of ^33P-γ-ATP incorporated into the immobilized peptide.\nThe assay used 150 ng of the N-terminal biotinylated peptide biotin-[…]-amide (VEGF-R2) per well.\n(§3) A maximum and minimum signal for the assay was determined on each plate. The percent inhibition of a test compound was calculated according to the formula: […]"}, "[2]": {"target": "T2, human CDK1 catalytic subunit and cyclin B (Homo sapiens, UniProt P06493)", "T2 construct": "purchased New England Biolabs, Beverly, Mass; 6020; host or cells: insect cells", "T2 sequence (P06493 whole entry)": "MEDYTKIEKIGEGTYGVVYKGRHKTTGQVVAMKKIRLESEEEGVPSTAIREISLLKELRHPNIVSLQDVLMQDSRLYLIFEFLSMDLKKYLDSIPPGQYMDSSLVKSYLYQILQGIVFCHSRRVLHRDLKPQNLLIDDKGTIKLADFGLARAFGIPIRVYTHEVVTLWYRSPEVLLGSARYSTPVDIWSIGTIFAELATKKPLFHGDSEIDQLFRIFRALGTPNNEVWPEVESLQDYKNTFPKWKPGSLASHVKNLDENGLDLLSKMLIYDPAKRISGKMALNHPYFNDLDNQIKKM", "T2 sequence (P14635 whole entry partner)": "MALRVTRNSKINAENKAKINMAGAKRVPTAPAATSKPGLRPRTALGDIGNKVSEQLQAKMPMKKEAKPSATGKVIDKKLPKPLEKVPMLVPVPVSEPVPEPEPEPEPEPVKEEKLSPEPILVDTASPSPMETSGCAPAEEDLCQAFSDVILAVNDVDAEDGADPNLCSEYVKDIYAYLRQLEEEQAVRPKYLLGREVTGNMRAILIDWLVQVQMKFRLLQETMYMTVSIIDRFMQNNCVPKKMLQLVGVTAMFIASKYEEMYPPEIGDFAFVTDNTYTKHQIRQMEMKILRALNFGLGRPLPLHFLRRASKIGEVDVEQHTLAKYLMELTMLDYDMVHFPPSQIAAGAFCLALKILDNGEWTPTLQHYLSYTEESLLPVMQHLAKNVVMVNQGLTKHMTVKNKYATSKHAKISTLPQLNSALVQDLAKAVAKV", "assay": "CDK1 screening assay (33P-ATP FlashPlate)", "assay_type": "biochemical", "settings": "10 μM ATP, 1 hr at 30° C.", "experimental": "(§4) A kinase reaction mixture was prepared containing 50 mM Tris-HCl pH=8, 10 mM MgCl2, 0.1 mM […], 1 mM DTT, 10 μM ATP, 0.025 μM biotinylated histone-H1 peptide substrate and 0.2 μCuries per well ^33P-γ-ATP (2000-3000 Ci/mmol). 70 μL of the kinase reaction mixture was dispensed into the well of a streptavidin coated FlashPlate™ (Cat. # SMP103, NEN, Boston, Mass.).\nas §2\nThe CDK1 enzyme was isolated from insect cells expressing both the human CDK1 catalytic subunit (Accession number NM_001786) and its positive regulatory subunit cyclin B (New England Biolabs, Beverly, Mass.; Cat. #6020). The assay used 30 ng of the N-terminal biotinylated peptide biotin-[…]-amide (Cyclin dependent kinase 1) per well.\nas §3\nFor a series of test concentrations, the IC50 was derived by graphing percent inhibition against the log of the concentrations tested for a given compound with results shown in Table 1."}, "[3]": {"target": "T3, HER2 (GST/HIS6 fusion, amino acids 679 to 1255 of HER-2) (Homo sapiens, UniProt P04626)", "T3 construct": "GST (Glutathione-S-Transferase) (N); HIS6 (N); thrombin cleavage site (N); purchased Proqinase, Freiburg, Germany", "T3 sequence (P04626 679-1255)": "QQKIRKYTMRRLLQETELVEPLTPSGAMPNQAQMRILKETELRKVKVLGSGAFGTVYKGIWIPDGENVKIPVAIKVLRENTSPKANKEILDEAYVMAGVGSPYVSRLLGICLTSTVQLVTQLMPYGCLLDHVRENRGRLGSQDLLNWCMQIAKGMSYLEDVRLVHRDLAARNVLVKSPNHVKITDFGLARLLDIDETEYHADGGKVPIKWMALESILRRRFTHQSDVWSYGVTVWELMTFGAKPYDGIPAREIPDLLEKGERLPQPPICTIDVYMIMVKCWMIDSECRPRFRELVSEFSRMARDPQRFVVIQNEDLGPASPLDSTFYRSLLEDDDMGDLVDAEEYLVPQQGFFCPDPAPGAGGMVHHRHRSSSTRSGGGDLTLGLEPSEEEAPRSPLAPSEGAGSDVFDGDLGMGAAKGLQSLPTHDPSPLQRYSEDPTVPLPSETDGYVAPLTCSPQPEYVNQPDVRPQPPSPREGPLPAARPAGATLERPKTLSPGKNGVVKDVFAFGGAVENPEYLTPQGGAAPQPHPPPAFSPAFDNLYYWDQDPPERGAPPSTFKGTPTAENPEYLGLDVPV", "assay": "HER2 screening assay (33P-ATP FlashPlate)", "assay_type": "biochemical", "settings": "10 μM ATP, 1 hr at 30° C.", "experimental": "as §4, §2\nThe HER2 construct consisted of a fusion of GST (Glutathione-S-Transferase), HIS6 Thrombin and the nucleotides encoding amino acids 679 to 1255 of HER-2 (Accession number M11730) (Proqinase, Freiburg, Germany). The assay used 200 ng of the N-terminal biotinylated peptide biotin-poly(GT) 4:1 (HER2) per well.\nas §3"}, "[4]": {"test_system": "HeLa cervical adenocarcinoma", "assay": "Cell proliferation inhibition assay (14C-thymidine incorporation), HeLa", "assay_type": "cell-based", "settings": "Homo sapiens, HeLa cells", "text": "(§5) The ability of a test compound to inhibit unregulated cell proliferation may be determined by measuring incorporation of ^14C-labelled thymidine into newly synthesized DNA within cell lines derived from carcinomas originating from several tissues. Accordingly, the anti-proliferative effect of a compound on cells with a variety of phenotypes may be determined.\n(§6) Carcinoma cell lines include those such as HeLa cervical adenocarcinoma (American Type Culture Collection (ATCC), Virginia, Cat. #CCL-2), A375 malignant melanoma (ATCC CRL-1619), and HCT-116 colon carcinoma (CCL-247).\n(§7) The carcinoma cells are trypsinized and counted. The cells (3000-8000 count) are added to each well of a 96-well CytoStar tissue culture treated scintillating microplate (Amersham #RPNQ0160) in complete medium (100 μL) and the plate is then incubated in complete medium for 24 hrs at 37° C. in an inert atmosphere containing 5% CO2. Test compound (1 μL) in 100% DMSO is added to the plate test-wells with DMSO only added to control-wells. The plate is incubated in complete medium for a second 24 hr period at 37° C. in an atmosphere containing 5% CO2.\n(§8) An aliquot of a solution of Methyl ^14C-thymidine (56 mC/mmol) (NEN #NEC568 or Amersham #CFA532) and complete medium (20 uL to provide 0.2 μCi/well) is then added to each well and the plate is incubated for a third 24 hr period at 37° C. in an atmosphere containing 5% CO2. The plate contents are then discarded, the plate is washed twice with PBS (200 μL) and then PBS (200 μL) is added to each well. The plate is sealed and the degree of methyl ^14C-thymidine incorporation is quantified on a Packard Top Count.\nas §3\n(§9) For a series of test concentrations, the IC50 was derived by graphing percent inhibition against the log of the concentrations tested for a given compound with results shown in Table 3."}, "[5]": {"test_system": "A375 malignant melanoma", "assay": "Cell proliferation inhibition assay (14C-thymidine incorporation), A375", "assay_type": "cell-based", "settings": "Homo sapiens, A-375, A375 cells", "text": "as §5, §6, §7, §8, §3, §9"}, "[6]": {"target": "T4, murine Aurora-A (polyhistidine fusion, full length) (Mus musculus, UniProt P97477)", "T4 construct": "followed by the full length protein encoding the murine Aurora-A; polyhistidine (N); made in house; host or cells: sf9 insect cells", "T4 sequence (P97477 1-395)": "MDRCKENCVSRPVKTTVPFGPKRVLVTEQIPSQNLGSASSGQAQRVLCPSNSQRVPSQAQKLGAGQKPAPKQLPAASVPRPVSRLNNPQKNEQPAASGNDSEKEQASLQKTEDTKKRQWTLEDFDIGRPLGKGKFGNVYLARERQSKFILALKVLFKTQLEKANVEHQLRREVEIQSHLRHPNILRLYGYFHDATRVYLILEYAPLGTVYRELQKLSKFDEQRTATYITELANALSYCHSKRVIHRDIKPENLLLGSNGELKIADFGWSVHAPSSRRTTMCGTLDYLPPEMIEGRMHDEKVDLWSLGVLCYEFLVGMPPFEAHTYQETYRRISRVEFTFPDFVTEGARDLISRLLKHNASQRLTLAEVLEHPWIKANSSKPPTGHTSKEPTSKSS", "assay": "Aurora-A screening assay (33P-ATP FlashPlate)", "assay_type": "biochemical", "settings": "10 μM ATP, 1 hr at 30° C.", "experimental": "as §1, §2\nAurora-A is a fusion protein containing a polyhistidine tag at the N terminus followed by the full length protein encoding the murine Aurora-A (Accession number GB BC014711) expressed and purified from sf9 insect cells. The assay used 400 ng of the N-terminal biotinylated peptide biotin-[…]-amide (Aurora-A) per well.\nas §3"}, "[7]": {"test_system": "HCT-116 colon carcinoma", "assay": "Cell proliferation inhibition assay (14C-thymidine incorporation), HCT-116", "assay_type": "cell-based", "settings": "Homo sapiens, HCT-116 cells", "text": "as §5, §6, §7, §8, §3, §9"}},
  "data": [
    {"smiles": "CCNCc1cncc(/C=C/c2c[nH]nc2-c2nc(C(F)(F)F)c[nH]2)c1", "note": "[Cpd 1, ethyl-(5-{2-[3-(4-trifluoromethyl-1H-imidazol-2-yl)-1H-pyrazol-4-yl]-vinyl}-pyridin-3-ylmethyl)-amine]", "values": [
      {"measurement": "IC50", "setting": "[1]", "result": "~10", "unit": "µM"},
      {"measurement": "IC50", "setting": "[2]", "result": 0.018, "unit": "µM"},
      {"measurement": "IC50", "setting": "[3]", "result": "> 100", "unit": "µM"},
      {"measurement": "IC50", "setting": "[4]", "result": 3.18, "unit": "µM"},
      {"measurement": "IC50", "setting": "[5]", "result": 7.44, "unit": "µM"},
      {"measurement": "IC50", "setting": "[6]", "result": "> 10", "unit": "µM"},
      {"measurement": "IC50", "setting": "[7]", "result": 1.75, "unit": "µM"}
    ]},
    {"smiles": "FC(F)(F)c1c[nH]c(-c2n[nH]cc2/C=C/c2cccnc2)n1", "note": "[Cpd 2, 3-{2-[3-(4-trifluoromethyl-1H-imidazol-2-yl)-1H-pyrazol-4-yl]-vinyl}-pyridine]", "values": [
      {"measurement": "IC50", "setting": "[1]", "result": 29.4, "unit": "µM"},
      {"measurement": "IC50", "setting": "[2]", "result": 0.483, "unit": "µM"},
      {"measurement": "IC50", "setting": "[3]", "result": "> 100", "unit": "µM"},
      {"measurement": "IC50", "setting": "[4]", "result": "> 10", "unit": "µM"},
      {"measurement": "IC50", "setting": "[5]", "result": 46.5, "unit": "µM"},
      {"measurement": "IC50", "setting": "[6]", "result": 0.117, "unit": "µM"},
      {"measurement": "IC50", "setting": "[7]", "result": 23.8, "unit": "µM"}
    ]},
    {"smiles": "N#Cc1c[nH]c(-c2n[nH]cc2/C=C/c2cccnc2)n1", "note": "[Cpd 3, 2-[4-(2-pyridin-3-yl-vinyl)-1H-pyrazol-3-yl]-1H-imidazole-4-carbonitrile]", "values": [
      {"measurement": "IC50", "setting": "[1]", "result": "> 10", "unit": "µM"},
      {"measurement": "IC50", "setting": "[2]", "result": 0.704, "unit": "µM"},
      {"measurement": "IC50", "setting": "[3]", "result": "> 100", "unit": "µM"},
      {"measurement": "IC50", "setting": "[4]", "result": "> 10", "unit": "µM"},
      {"measurement": "IC50", "setting": "[5]", "result": "> 10", "unit": "µM"},
      {"measurement": "IC50", "setting": "[6]", "result": "> 10", "unit": "µM"},
      {"measurement": "IC50", "setting": "[7]", "result": 70.7, "unit": "µM"}
    ]},
    {"smiles": "FC(F)(F)c1cnc(-c2n[nH]cc2C=Cc2cncc3ccccc23)[nH]1", "note": "[Cpd 4, 4-{2-[3-(4-trifluoromethyl-1H-imidazol-2-yl)-1H-pyrazol-4-yl]-vinyl}-isoquinoline]", "values": [
      {"measurement": "IC50", "setting": "[1]", "result": 3.06, "unit": "µM"},
      {"measurement": "IC50", "setting": "[2]", "result": 0.113, "unit": "µM"},
      {"measurement": "IC50", "setting": "[4]", "result": 3.58, "unit": "µM"},
      {"measurement": "IC50", "setting": "[5]", "result": 5.59, "unit": "µM"},
      {"measurement": "IC50", "setting": "[6]", "result": 0.297, "unit": "µM"},
      {"measurement": "IC50", "setting": "[7]", "result": 2.92, "unit": "µM"}
    ]}
  ]
}
